# Assay results: patent US8217071B2, “Use of inhibitors of the degradation of p27, in particular Argyrin and derivatives thereof, for the treatment of proliferative diseases” (Helmholtz Zentrum für Infektionsforschung GmbH, priority 2007, dated 2012)
# Numbered stars: 1 amine (or outer) side, 2 acyl side, 3 side chain; on linkers, the order of the positions; unused ones are H or OH. Square brackets hold non-standard residues; d marks the D form. Peptide text beside a SMILES is read from it. dAla(ψthiazole) = C[C@@H](N[*:1])c1nc(C(=O)[*:2])cs1; Trp(4-OMe) = COc1cccc2[nH]cc(C[C@H](N)C(=O)O)c12; Dha = C=C(N)C(=O)O; Sar = CNCC(=O)O
# Key:
# Assay type in all cases: cell-based, human
# A549 (lung cancer) = assay: Flow cytometry cell cycle / sub-G1 analysis; conditions: at ranges of IC50
# Description: (§1) The expression levels of p27^kip1 were determined at the indicated timepoints by western blotting and normalized against actin expression which was used as an internal control.
# (§2) MTT assays were done as previously described (Sasse, F. et al. Argyrins, immunosuppressive cyclic peptides from myxobacteria. I. Production, isolation, physico-chemical and biological properties. J Antibiot (Tokyo) 55, 543-51 (2002)). TUNEL staining of tissue sections was performed on 10 micrometer sections which were deparafinised and treated as recommended by the manufacturer. (In Situ Cell Death Detection Kit, Fluorescein; ROCHE, Cat #11 684 795 910). Flow cytometric analysis of cultured cells was done using a Becton Dickinson fluorescence cytometer as previously described (Malek, N. P. et al. A mouse knock-in model exposes sequential proteolytic pathways that regulate p27^Kip1 in G1 and S phase. Nature 413, 323-7 (2001)). Analysis of the distribution of cells in the cell cycle and the sub-G1 fraction was done using Cell Quest software. A histone-associated-DNA-fragments ELISA was used to determine the number of apoptotic cells according to manufacturers instructions (Roche #11 774425001).
# [1] = tested on: CaCo colon carcinoma cell line; assay: Flow cytometry cell cycle / sub-G1 analysis; conditions: at ranges of IC50; sub G1 phase fraction
# Description: as §1, §2
# HeLa (cervix carcinoma) = assay: Flow cytometry cell cycle / sub-G1 analysis; conditions: at ranges of IC50; sub G1 phase fraction
# Description: as §1, §2
# p27^kip1 = p27^kip1 expression time course by western blotting; conditions: SW480, HCT116 and HeLa cells
# Description: as §1
# Immunohistochemical staining of mouse tumour tissue, western Blotting and immunofluorescence experiments were done as previously described (Timmerbeul, I. et al. Testing the importance of p27 degradation by the SCFskp2 pathway in murine models of lung and colon cancer. Proc Natl Acad Sci USA 103, 14009-14 (2006). Kossatz, U. et al. C-terminal phosphorylation controls the stability and function of p27^kip1. Embo J 25, 5159-70 (2006).). The following antibodies were used: p27 (Cat. No. K25020-150; Transduction Labs), p21 (N20; Santa Cruz), p53 (FL-393; Santa Cruz), NfKB (C-20; Santa Cruz), Bax (P-19; Santa Cruz), Alexa fluor 488 (# A11001; Invitrogen), 20S-proteasome subunit beta 2 (Z) (PW9300; Bio-mol, for human cells), 20S-proteasome subunit beta 2 (Z) (PW8145; BIO TREND, for mouse cells); 20S proteasome subunit beta 1(Y) (PW8140; BIO TREND), 20S proteasome subunit beta 5 (PW8895; BIO TREND); PECAM Antibody clone MEC 13.3 (#550274; BD Pharmingen).
smiles,measurement,setting,value
C=C1NC(=O)[C@@H](C)NC(=O)CNC(=O)[C@H](Cc2c[nH]c3cccc(OC)c23)NC(=O)[C@H](Cc2c[nH]c3ccccc23)NC(=O)c2csc(n2)[C@@H](C)NC(=O)CN(C)C1=O [Argyrin A] (cyclo(W[Trp(4-OMe)]G[dA][Dha][Sar][dAla(ψthiazole)])),cellular phenotype,A549 (lung cancer),stopped to proliferate
same,cellular phenotype,[1],underwent apoptosis
same,cellular phenotype,HeLa (cervix carcinoma),underwent apoptosis
same,cellular p27^kip1 levels,p27^kip1,increase
